Activity calls are given as the source filed them. The calls are words filed in the database; no cut-off is given here.

What all share (type): functional
Settings in all cases: for T/C: route intraperitoneal

Experiment [1] has as its system P388. The experiment is described as follows: Antitumor activity against mouse P388 cells allografted in DBA/2 mouse at 25 mg/kg/day, ip administered for 2 weeks relative to control.
Experiment [2] has as its system W256. The experiment is described as follows: Antitumor activity against rat Walker 256 cells allografted in Sprague-Dawley rat at 2.5 mg/kg/day, ip relative to control.
Experiment [3] deals with B16. As to the kind of experiment: Antitumor activity against mouse B16 cells allografted in C57Bl/6 mouse at 25 mg/kg/day, ip administered for 2 weeks relative to control.

Regarding `Cc1c[nH]c(=O)[nH]c1=O`, the outcome in experiment [1], in experiment [2] and in experiment [3] was inactive.
The term T/C denotes the ratio of treated to control. `C=C1CC(C)(Cn2cc(COC(=O)/C=C/c3ccccc3)c(=O)[nH]c2=O)OC1=O` (configuration not stated): the results for the T/C in experiment [1], in experiment [2] and in experiment [3] were 130%, 211% and 141%, respectively.
In the case of `C=C1C(=O)O[C@H]2[C@H]1[C@H](OC(=O)/C(C)=C/CO)C/C(C)=C/CC[C@@]1(CO)O[C@H]21`, the T/C in experiment [1] was determined as 147%; in experiment [2] it was 330%; in experiment [3], 111%.
For the molecule `O=c1[nH]cc(F)c(=O)[nH]1` [FLUOROURACIL], the figures for the T/C in experiment [1] and in experiment [3] were 186% and 164%, respectively.
Consider `O=c1cc[nH]c(=O)[nH]1`, for which the result in experiment [1], in experiment [2] and in experiment [3] was inactive.
The molecule `N[C@@H](Cc1ccc(N(CCCl)CCCl)cc1)C(=O)O` [MELPHALAN] gave a T/C in experiment [2] of 317%.
With `C=C1C(=O)O[C@H]2/C=C(/C)[C@H](CO)C/C=C(\C)C[C@@H](OC(=O)/C(=C/CO)CO)[C@@H]12` [EUPAFORMOSANIN], the T/C was 147% in experiment [1], 471% in experiment [2] and 113% in experiment [3].
Regarding `C=C1CC(C)(Cn2ccc(=O)[nH]c2=O)OC1=O` (configuration not stated), the T/C in experiment [1] came out at 115%; in experiment [2] it was 131%; in experiment [3], 111%.
Consider `C=C1CC(C)(Cn2cc(COC(=O)c3cc(OC)c(OC)c(OC)c3)c(=O)[nH]c2=O)OC1=O` (configuration not stated), for which the T/C in experiment [1] stood at 142%; in experiment [2], 209%; in experiment [3], 129%.
Turning to `C=C1CC(C)(Cn2cc(C)c(=O)[nH]c2=O)OC1=O` (configuration not stated), the T/C in experiment [1] is reported as 127%; in experiment [2], 127%; in experiment [3], 123%.

The values above are taken from ChEMBL document CHEMBL3271954, “Antitumor agents. 25. Synthesis and antitumor activity of uracil and thymine alpha-methylene-gamma-lactones and related derivatives” (1977).
